Legend:
[1] = target: Recombinant human MALT-1 (amino acids 340-824) (Homo sapiens (Human), UniProt Q9UDY8); assay: MALT-1 inhibition assay (fluorogenic substrate Ac-LRSR-Rh110-DP); type: biochemical; settings: recombinant human MALT-1, substrate Ac-LRSR-Rh110-DP
Outline: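 MALT-1 at 3 nM final was reacted with 10 μM Ac-LRSR-Rh110-DP, with substrate addition starting the reaction. Incubation ran 60 minutes at 25° C in the dark. Percent inhibition from fluorescence across doses was fitted to a 4-parameter logistic to give IC50.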

[2] = test system: IL-2 secretion by human effector memory T cells (TEM); assay: Effector memory T cells IL-2 release assay; type: cell-based; settings: T-cell; human CD4+ effector memory T cells, CD3/CD28 bead stimulation, 24 h; read-out: CD4TC IL2 IC50
Outline: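 Human CD4+ effector memory T cells from healthy-donor buffy coats were stimulated with anti-CD3/CD28 Dynabeads and exposed to 10 semi-log compound doses (0.1% DMSO) for 24 h at 37 °C. Supernatant IL-2 was measured by HTRF, and IC50 came from a 4-parameter logistic fit to maximal IL-2. Viability was checked by flow cytometry.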

Chain of Recombinant human MALT-1 (amino acids 340-824) (Q9UDY8 340-824): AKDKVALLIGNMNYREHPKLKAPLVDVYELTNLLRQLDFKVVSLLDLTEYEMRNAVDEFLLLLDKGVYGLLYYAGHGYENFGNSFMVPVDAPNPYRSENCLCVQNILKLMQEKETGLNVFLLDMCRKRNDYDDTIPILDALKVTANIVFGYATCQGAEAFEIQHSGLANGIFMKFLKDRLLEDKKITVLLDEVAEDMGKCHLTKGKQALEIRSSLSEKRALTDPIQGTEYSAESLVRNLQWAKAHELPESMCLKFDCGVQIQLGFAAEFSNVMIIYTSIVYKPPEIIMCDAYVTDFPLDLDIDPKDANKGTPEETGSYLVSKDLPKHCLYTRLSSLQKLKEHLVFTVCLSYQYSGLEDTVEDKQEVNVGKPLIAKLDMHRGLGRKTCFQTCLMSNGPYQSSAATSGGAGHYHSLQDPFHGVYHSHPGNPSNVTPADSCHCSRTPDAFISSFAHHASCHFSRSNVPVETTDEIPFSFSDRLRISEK

IC50 [1]: 138 nM | IC50 [2]: 63 nM
SMILES: COC[C@]1(C)CCN(c2ccc([C@H](N(C)C(=O)[C@H]3CC[S@+]([O-])CC3)C(F)(F)F)cc2)c2cnc3cc(Cl)nn3c21 (relative stereo) [CPD0073136, (1rel-r,4rel-r)-N-[(1S)-1-[4-[(13rel-R)-4-chloro-13-(methoxymethyl)-13-methyl-2,3,7,10-tetrazatricyclo[7.4.0.0^2,6]trideca-1(9),3,5,7-tetraen-10-yl]phenyl]-2,2,2-trifluoro-ethyl]-N-methyl-1-oxo-1λ^4-thiane-4-carboxamide]
